Measurements taken from patent US20240150362A1, “Substituted Pyrrolotriazines” (Molecure S.A., priority 2022, published 2024).
Counter-ions that a name gives are not always drawn.

The molecules below were run against T1, full-length USP7 (Homo sapiens, UniProt Q93009) (assay: Enzymatic assay to determine IC50 of USP7 inhibitors (Ubiquitin-Rhodamine 110 cleavage)). Settings: full-length USP7 0.5-1.0 nM, 0.5 μM Ubiquitin-Rhodamine 110, 30-60 min at 25° C.
T1 construct: A 45 μl reaction volume containing full-length USP7 (0.5-1.0 nM)
T1 sequence (Q93009 whole entry): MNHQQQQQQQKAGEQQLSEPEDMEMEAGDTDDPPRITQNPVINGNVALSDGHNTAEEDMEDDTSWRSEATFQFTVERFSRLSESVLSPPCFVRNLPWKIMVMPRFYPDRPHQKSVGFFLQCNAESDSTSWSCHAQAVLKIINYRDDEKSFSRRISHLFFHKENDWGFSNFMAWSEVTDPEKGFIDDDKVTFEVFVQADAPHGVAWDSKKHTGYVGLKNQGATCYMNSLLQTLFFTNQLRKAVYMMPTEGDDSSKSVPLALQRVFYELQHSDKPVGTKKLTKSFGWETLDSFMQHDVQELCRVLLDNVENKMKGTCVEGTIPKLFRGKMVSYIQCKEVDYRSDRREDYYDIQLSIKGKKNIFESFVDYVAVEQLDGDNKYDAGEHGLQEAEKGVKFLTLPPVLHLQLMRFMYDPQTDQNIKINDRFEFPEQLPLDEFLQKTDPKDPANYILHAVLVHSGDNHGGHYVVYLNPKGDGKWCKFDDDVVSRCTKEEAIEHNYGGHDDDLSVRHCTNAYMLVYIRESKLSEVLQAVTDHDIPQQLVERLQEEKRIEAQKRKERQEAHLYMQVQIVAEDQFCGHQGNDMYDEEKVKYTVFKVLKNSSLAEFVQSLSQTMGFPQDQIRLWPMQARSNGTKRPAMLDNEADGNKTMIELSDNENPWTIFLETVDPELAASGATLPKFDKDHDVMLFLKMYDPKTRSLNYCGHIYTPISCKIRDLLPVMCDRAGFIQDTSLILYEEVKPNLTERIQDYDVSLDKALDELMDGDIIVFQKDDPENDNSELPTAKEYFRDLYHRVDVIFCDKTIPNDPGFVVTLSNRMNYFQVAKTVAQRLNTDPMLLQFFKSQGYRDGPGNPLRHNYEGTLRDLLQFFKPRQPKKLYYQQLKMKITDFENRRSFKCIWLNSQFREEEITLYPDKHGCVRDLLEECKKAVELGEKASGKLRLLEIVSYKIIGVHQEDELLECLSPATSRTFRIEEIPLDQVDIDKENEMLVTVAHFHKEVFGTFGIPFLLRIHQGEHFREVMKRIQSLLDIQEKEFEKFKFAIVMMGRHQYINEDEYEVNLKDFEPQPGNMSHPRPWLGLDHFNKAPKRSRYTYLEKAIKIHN
Type: biochemical
Method in brief: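 Full-length USP7 (0.5-1.0 nM) was held in HEPES pH 7.5 with NaCl, 2 mM DTT, BSA and Tween20 for 15 min at room temperature before compound was added. The reaction was started with 0.5 μM ubiquitin-rhodamine 110 (final) and run 30-60 min at 25 °C. Fluorescence (485/535 nm) was fitted to a four-parameter curve for IC50.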

IC50, < 500 nM:
Cc1cc(Cl)cc(-c2ncnn3cc(Cn4c(=O)ccn(CCF)c4=O)cc23)c1CC1CNC[C@H](C)O1 (stereo partly drawn) [Example 101, 3-((4-(5-chloro-3-methyl-2-(((6S)-6-methylmorpholin-2-yl)methyl)phenyl)pyrrolo[2,1-f][1,2,4]triazin-6-yl)methyl)-1-(2-fluoroethyl)pyrimidine-2,4(1H,3H)-dione hydrochloride]
Cc1cc(Cl)cc(-c2ncnn3cc(CN4C(=O)CCN(C)C4=O)cc23)c1CC1CNC[C@H](C)O1 (stereo partly drawn) [Example 109, 3-((4-(5-chloro-3-methyl-2-(((6S)-6-methylmorpholin-2-yl)methyl)phenyl)pyrrolo[2,1-f][1,2,4]triazin-6-yl)methyl)-1-methyldihydropyrimidine-2,4(1H,3H)-dione hydrochloride]
Cc1cc(Cl)cc(-c2ncnn3cc(Cn4c(=O)ccn(C(C)C)c4=O)cc23)c1CC1CNC[C@H](C)O1 (stereo partly drawn) [Example 111, 3-((4-(5-chloro-3-methyl-2-(((6S)-6-methylmorpholin-2-yl)methyl)phenyl)pyrrolo[2,1-f][1,2,4]triazin-6-yl)methyl)-1-isopropylpyrimidine-2,4(1H,3H)-dione hydrochloride]
Cn1ccc(=O)n(Cc2cc3c(-c4cc(Cl)cc(Cl)c4CC4CNCCO4)ncnn3c2)c1=O (stereo not drawn) [Example 118, 3-((4-(3,5-dichloro-2-(morpholin-2-ylmethyl)phenyl)pyrrolo[2,1-f][1,2,4]triazin-6-yl)methyl)-1-methylpyrimidine-2,4(1H,3H)-dione hydrochloride]
O=c1cc[nH]c(=O)n1Cc1cc2c(-c3cc(Cl)cc4ccn(CC5(F)CCNCC5)c34)ncnn2c1 [Example 130, 3-((4-(5-chloro-1-((4-fluoropiperidin-4-yl)methyl)-1H-indol-7-yl)pyrrolo[2,1-f][1,2,4]triazin-6-yl)methyl)pyrimidine-2,4(1H,3H)-dione hydrochloride]
Cl.[2H]C([2H])([2H])n1ccc(=O)n(Cc2cc3c(-c4cc(Cl)cc5ccn(CC6(F)CCNCC6)c45)ncnn3c2)c1=O [Example 131, 3-((4-(5-chloro-1-((4-fluoropiperidin-4-yl)methyl)-1H-indol-7-yl)pyrrolo[2,1-f][1,2,4]triazin-6-yl)methyl)-1-(methyl-d3)pyrimidine-2,4(1H,3H)-dione hydrochloride]
